Test results from BindingDB's records for patent US20240270732 (Chengdu Biobel Biotechnology Co., 2024).
One block for each compound: values may come before it.

Molecular target: T1, Receptor-interacting serine/threonine-protein kinase 1 (Homo sapiens, UniProt Q13546)
T1 sequence (Q13546 whole entry): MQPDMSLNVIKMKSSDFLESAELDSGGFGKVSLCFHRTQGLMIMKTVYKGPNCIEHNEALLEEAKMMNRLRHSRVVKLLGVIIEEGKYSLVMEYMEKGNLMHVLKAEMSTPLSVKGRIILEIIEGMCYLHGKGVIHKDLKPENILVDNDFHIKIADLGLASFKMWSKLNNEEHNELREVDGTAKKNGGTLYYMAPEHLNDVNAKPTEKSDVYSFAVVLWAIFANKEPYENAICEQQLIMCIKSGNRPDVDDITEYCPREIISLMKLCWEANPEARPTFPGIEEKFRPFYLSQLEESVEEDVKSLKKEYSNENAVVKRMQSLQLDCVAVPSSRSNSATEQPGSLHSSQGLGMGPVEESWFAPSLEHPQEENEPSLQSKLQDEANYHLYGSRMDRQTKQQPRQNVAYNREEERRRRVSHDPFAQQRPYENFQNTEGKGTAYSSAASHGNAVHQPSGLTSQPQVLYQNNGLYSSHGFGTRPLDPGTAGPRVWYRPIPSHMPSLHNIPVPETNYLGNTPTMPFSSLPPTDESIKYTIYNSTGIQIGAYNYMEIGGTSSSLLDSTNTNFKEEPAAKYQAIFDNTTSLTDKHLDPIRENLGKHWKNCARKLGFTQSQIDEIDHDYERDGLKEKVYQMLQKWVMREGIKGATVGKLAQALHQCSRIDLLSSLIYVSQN
Experiment: Inhibitory Activity Assay
Method: The compound of the present invention and the control compound were dissolved in the assay buffer (50 mM Hepes pH 7.5, 50 mM NaCl, 30 mM MgCl2, 1 mM DTT, 0.02% CHAPS, 0.5 mg/mL BSA), and diluted in a ratio of 1:1.5 using a 22-point titration (high concentration 2 μM), and then added to a 384-well plate. […] After completion of the reaction, 5 μL of ADP-Glo reagent containing 0.02% CHAPS was added to each well and incubated at room temperature for 1 h to terminate the kinase reaction and use up all remaining ATP. Then, 5 μL of ADP-Glo detection solution containing 0.02% CHAPS was added to each well and incubated at room temperature for 30 min to measure the emittance intensity.

SMILES: C#CCN1CCN(CC#Cc2ccc3c(c2)N(C)C(=O)[C@@H](NC(=O)c2nnc(Cc4ccccc4)o2)[C@@H](C)O3)CC1 [US20240270732, Compound I-49]
IC50: 16.2 nM

SMILES: C#CCN1CCN(CC#Cc2ccc3c(c2)N(C)C(=O)[C@@H](NC(=O)c2noc(Cc4ccccc4)n2)[C@@H](C)O3)CC1 [US20240270732, Compound I-51]
IC50: 15.9 nM

SMILES: C#CCN1CCN(CC#Cc2ccc3c(c2)N(C)C(=O)[C@@H](NC(=O)c2cn(Cc4ccccc4)nn2)[C@@H](C)O3)CC1 [US20240270732, Compound I-53]
IC50: 15.1 nM

SMILES: C#CCN1CCN(CC#Cc2ccc3c(c2)N(C)C(=O)[C@@H](NC(=O)c2nnn(Cc4ccccc4)n2)[C@@H](C)O3)CC1 [US20240270732, Compound I-55]
IC50: 8.91 nM

SMILES: C#CCN1CCN(CC#Cc2ccc3c(c2)N(C)C(=O)[C@@H](NC(=O)c2nnn(Cc4ccccc4)n2)CO3)CC1 [US20240270732, Compound I-57]
IC50: 8.09 nM

SMILES: C#CCN1CCN(CC#Cc2ccc3c(c2)N(C)C(=O)[C@@H](NC(=O)c2cn(Cc4ccccc4)cn2)[C@@H](C)O3)CC1 [US20240270732, Compound I-59]
IC50: 10.2 nM

SMILES: C#CCN1CCN(CC#Cc2ccc3c(c2)N(C)C(=O)[C@@H](NC(=O)c2cn(Cc4ccccc4)cn2)CO3)CC1 [US20240270732, Compound I-61]
IC50: 8.43 nM

SMILES: C#CCN1CCN(CC#Cc2ccc3c(c2)N(C)C(=O)[C@@H](NC(=O)c2cn(Cc4ccccc4)cn2)[C@H](C)O3)CC1 [US20240270732, Compound I-63]
IC50: 59.2 nM

SMILES: C#CCN1CCN(CC#Cc2ccc3c(c2)N(C)C(=O)[C@@H](NC(=O)c2n[nH]c(Cc4ccncc4)n2)[C@@H](C)O3)CC1 [US20240270732, Compound I-65]
IC50: 20.7 nM

SMILES: C#CCN1CCN(CC#Cc2ccc3c(c2)N(C)C(=O)[C@@H](NC(=O)c2n[nH]c(Cc4cccnc4)n2)[C@@H](C)O3)CC1 [US20240270732, Compound I-67]
IC50: 14.6 nM

SMILES: C#CCN1CCN(CC#Cc2ccc3c(c2)N(C)C(=O)[C@@H](NC(=O)c2n[nH]c(Cc4cccc(O)c4)n2)[C@@H](C)O3)CC1 [US20240270732, Compound I-69]
IC50: 19.4 nM

SMILES: C#CCN1CCN(CC#Cc2ccc3c(c2)N(C)C(=O)[C@@H](NC(=O)c2n[nH]c(Cc4cccc(N)c4)n2)[C@@H](C)O3)CC1 [US20240270732, Compound I-71]
IC50: 23.9 nM

SMILES: C#CCN1CCN(CC#Cc2ccc3c(c2)N(C)C(=O)[C@@H](NC(=O)c2ncn(Cc4cccnc4)n2)[C@@H](C)O3)CC1 [US20240270732, Compound I-73]
IC50: 19.1 nM

SMILES: C#CCN1CCN(CC#Cc2ccc3c(c2)N(C)C(=O)[C@@H](NC(=O)c2ncn(Cc4cccc(O)c4)n2)[C@@H](C)O3)CC1 [US20240270732, Compound I-75]
IC50: 21 nM

SMILES: C#CCN1CCN(CC#Cc2ccc3c(c2)N(C)C(=O)[C@@H](NC(=O)c2ncn(Cc4cccc(N)c4)n2)[C@@H](C)O3)CC1 [US20240270732, Compound I-77]
IC50: 29 nM

Now from value to compound:

IC50: 13.3 nM
SMILES: C[C@H]1Oc2ccc(C#CCN3CCN(CC#Cc4ccc5c(c4)N(C)C(=O)[C@@H](NC(=O)c4cnn(Cc6ccccc6)c4)[C@@H](C)O5)CC3)cc2N(C)C(=O)[C@H]1NC(=O)c1cnn(Cc2ccccc2)c1 [US20240270732, Compound I-48]

IC50: 14.3 nM
SMILES: C[C@H]1Oc2ccc(C#CCN3CCN(CC#Cc4ccc5c(c4)N(C)C(=O)[C@@H](NC(=O)c4nnc(Cc6ccccc6)o4)[C@@H](C)O5)CC3)cc2N(C)C(=O)[C@H]1NC(=O)c1nnc(Cc2ccccc2)o1 [US20240270732, Compound I-50]

IC50: 13.3 nM
SMILES: C[C@H]1Oc2ccc(C#CCN3CCN(CC#Cc4ccc5c(c4)N(C)C(=O)[C@@H](NC(=O)c4noc(Cc6ccccc6)n4)[C@@H](C)O5)CC3)cc2N(C)C(=O)[C@H]1NC(=O)c1noc(Cc2ccccc2)n1 [US20240270732, Compound I-52]

IC50: 14.7 nM
SMILES: C[C@H]1Oc2ccc(C#CCN3CCN(CC#Cc4ccc5c(c4)N(C)C(=O)[C@@H](NC(=O)c4cn(Cc6ccccc6)nn4)[C@@H](C)O5)CC3)cc2N(C)C(=O)[C@H]1NC(=O)c1cn(Cc2ccccc2)nn1 [US20240270732, Compound I-54]

IC50: 7.44 nM
SMILES: C[C@H]1Oc2ccc(C#CCN3CCN(CC#Cc4ccc5c(c4)N(C)C(=O)[C@@H](NC(=O)c4nnn(Cc6ccccc6)n4)[C@@H](C)O5)CC3)cc2N(C)C(=O)[C@H]1NC(=O)c1nnn(Cc2ccccc2)n1 [US20240270732, Compound I-56]

IC50: 6.16 nM
SMILES: CN1C(=O)[C@@H](NC(=O)c2nnn(Cc3ccccc3)n2)COc2ccc(C#CCN3CCN(CC#Cc4ccc5c(c4)N(C)C(=O)[C@@H](NC(=O)c4nnn(Cc6ccccc6)n4)CO5)CC3)cc21 [US20240270732, Compound I-58]

IC50: 9.91 nM
SMILES: C[C@H]1Oc2ccc(C#CCN3CCN(CC#Cc4ccc5c(c4)N(C)C(=O)[C@@H](NC(=O)c4cn(Cc6ccccc6)cn4)[C@@H](C)O5)CC3)cc2N(C)C(=O)[C@H]1NC(=O)c1cn(Cc2ccccc2)cn1 [US20240270732, Compound I-60]

IC50: 8.07 nM
SMILES: CN1C(=O)[C@@H](NC(=O)c2cn(Cc3ccccc3)cn2)COc2ccc(C#CCN3CCN(CC#Cc4ccc5c(c4)N(C)C(=O)[C@@H](NC(=O)c4cn(Cc6ccccc6)cn4)CO5)CC3)cc21 [US20240270732, Compound I-62]

IC50: 62.2 nM
SMILES: C[C@@H]1Oc2ccc(C#CCN3CCN(CC#Cc4ccc5c(c4)N(C)C(=O)[C@@H](NC(=O)c4cn(Cc6ccccc6)cn4)[C@H](C)O5)CC3)cc2N(C)C(=O)[C@H]1NC(=O)c1cn(Cc2ccccc2)cn1 [US20240270732, Compound I-64]

IC50: 18.8 nM
SMILES: C[C@H]1Oc2ccc(C#CCN3CCN(CC#Cc4ccc5c(c4)N(C)C(=O)[C@@H](NC(=O)c4n[nH]c(Cc6ccncc6)n4)[C@@H](C)O5)CC3)cc2N(C)C(=O)[C@H]1NC(=O)c1n[nH]c(Cc2ccncc2)n1 [US20240270732, Compound I-66]

IC50: 16 nM
SMILES: C[C@H]1Oc2ccc(C#CCN3CCN(CC#Cc4ccc5c(c4)N(C)C(=O)[C@@H](NC(=O)c4n[nH]c(Cc6cccnc6)n4)[C@@H](C)O5)CC3)cc2N(C)C(=O)[C@H]1NC(=O)c1n[nH]c(Cc2cccnc2)n1 [US20240270732, Compound I-68]

IC50: 18.2 nM
SMILES: C[C@H]1Oc2ccc(C#CCN3CCN(CC#Cc4ccc5c(c4)N(C)C(=O)[C@@H](NC(=O)c4n[nH]c(Cc6cccc(O)c6)n4)[C@@H](C)O5)CC3)cc2N(C)C(=O)[C@H]1NC(=O)c1n[nH]c(Cc2cccc(O)c2)n1 [US20240270732, Compound I-70]

IC50: 22.1 nM
SMILES: C[C@H]1Oc2ccc(C#CCN3CCN(CC#Cc4ccc5c(c4)N(C)C(=O)[C@@H](NC(=O)c4n[nH]c(Cc6cccc(N)c6)n4)[C@@H](C)O5)CC3)cc2N(C)C(=O)[C@H]1NC(=O)c1n[nH]c(Cc2cccc(N)c2)n1 [US20240270732, Compound I-72]

IC50: 17.5 nM
SMILES: C[C@H]1Oc2ccc(C#CCN3CCN(CC#Cc4ccc5c(c4)N(C)C(=O)[C@@H](NC(=O)c4ncn(Cc6cccnc6)n4)[C@@H](C)O5)CC3)cc2N(C)C(=O)[C@H]1NC(=O)c1ncn(Cc2cccnc2)n1 [US20240270732, Compound I-74]

IC50: 22.4 nM
SMILES: C[C@H]1Oc2ccc(C#CCN3CCN(CC#Cc4ccc5c(c4)N(C)C(=O)[C@@H](NC(=O)c4ncn(Cc6cccc(O)c6)n4)[C@@H](C)O5)CC3)cc2N(C)C(=O)[C@H]1NC(=O)c1ncn(Cc2cccc(O)c2)n1 [US20240270732, Compound I-76]

IC50: 23.1 nM
SMILES: C[C@H]1Oc2ccc(C#CCN3CCN(CC#Cc4ccc5c(c4)N(C)C(=O)[C@@H](NC(=O)c4ncn(Cc6cccc(N)c6)n4)[C@@H](C)O5)CC3)cc2N(C)C(=O)[C@H]1NC(=O)c1ncn(Cc2cccc(N)c2)n1 [US20240270732, Compound I-78]
